The results in this text go back to patent US7521570B2, “Medicinal compositions containing 6-hydroxybenzbromarone or salts thereof” (Torli Pharmaceutical Co., Ltd., priority 2004, dated 2009).

Read-outs that look alike come from different tables or passages of the source.

The target of series [1] is T1, human OAT3 (human organic anion transporter 3) (Homo sapiens, UniProt Q8TCC7).
T1 construct: expressed in transfected cells; host or cells: S2 cells expressing OAT3
T1 sequence (Q8TCC7 1-542): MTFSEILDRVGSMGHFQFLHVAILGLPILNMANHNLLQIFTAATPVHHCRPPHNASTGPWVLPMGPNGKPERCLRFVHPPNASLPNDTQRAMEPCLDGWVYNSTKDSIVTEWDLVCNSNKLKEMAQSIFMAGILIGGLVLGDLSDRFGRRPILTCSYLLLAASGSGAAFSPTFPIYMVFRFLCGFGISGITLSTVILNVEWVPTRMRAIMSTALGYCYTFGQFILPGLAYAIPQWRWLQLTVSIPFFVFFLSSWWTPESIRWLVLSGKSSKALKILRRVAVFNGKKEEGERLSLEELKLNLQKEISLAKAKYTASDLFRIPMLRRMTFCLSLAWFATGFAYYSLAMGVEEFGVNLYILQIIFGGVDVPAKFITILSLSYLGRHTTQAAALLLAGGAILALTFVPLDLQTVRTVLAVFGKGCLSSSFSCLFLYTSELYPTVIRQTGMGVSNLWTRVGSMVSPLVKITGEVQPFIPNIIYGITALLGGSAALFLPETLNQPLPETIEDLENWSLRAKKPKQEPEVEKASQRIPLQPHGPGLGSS
Put plainly: Inhibition of 3H-estrone sulfate uptake by OAT3 in S2 cells. The series is classed as cell-based. The conditions noted are these: for Ki: OAT3, 3H-estrone sulfate uptake. Here is the method:
OAT3 is an organic anion transporter which is present at basal-lateral (vascular side) membrane of the proximal renal tubule and takes organic anion such as uric acid into cells, and estrone sulfate is known as the typical substrate of this.
The horizontal axis of FIG. 8 represents 1/S (L/mmol) and the vertical axis represents 1/V (mg protein/μM/min), black square (▪) denotes 6-hydroxybenzbromarone (0.3 μM) case and white square (□) denotes control.

Another series has as its target T2, URAT1 (Homo sapiens, UniProt Q96S37).
T2 construct: expressed in transfected cells
T2 sequence (Q96S37 1-553): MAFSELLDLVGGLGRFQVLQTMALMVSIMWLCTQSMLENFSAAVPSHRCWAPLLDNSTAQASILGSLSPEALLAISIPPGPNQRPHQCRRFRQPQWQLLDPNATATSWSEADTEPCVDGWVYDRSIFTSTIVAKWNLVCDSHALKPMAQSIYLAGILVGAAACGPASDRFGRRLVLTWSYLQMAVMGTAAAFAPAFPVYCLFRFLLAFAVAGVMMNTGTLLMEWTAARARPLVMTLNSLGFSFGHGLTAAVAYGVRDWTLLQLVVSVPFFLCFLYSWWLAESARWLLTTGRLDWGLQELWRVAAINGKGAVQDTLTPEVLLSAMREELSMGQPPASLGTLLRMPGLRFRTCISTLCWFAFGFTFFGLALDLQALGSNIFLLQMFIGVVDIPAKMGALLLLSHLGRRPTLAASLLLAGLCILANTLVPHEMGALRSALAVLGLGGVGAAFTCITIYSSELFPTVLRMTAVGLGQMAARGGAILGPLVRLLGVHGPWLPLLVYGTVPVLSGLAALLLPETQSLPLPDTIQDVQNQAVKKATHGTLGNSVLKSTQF
Put plainly: Inhibition of [14C] uric acid uptake by URAT1 in MDCK-URAT1 cells. The series is classed as cell-based. Conditions: for IC50: MDCK-URAT1 cells, 100 μM [14C] uric acid. Here is the method:
cDNA of URAT1 was introduced into MDCK cells and stably expressing cells (MDCK-URAT1) were created. […] Experiments are carried out each three times and level of IC50 was analyzed by profit.
cDNA of URAT1 which was integrated into mammal expression vector pcDNA3.1, or pcDNA3.1 was gene transfected to MDCK cells to create stably expressing cells (MDCK-URAT1) and mock cells.
This MDCK-URAT1 was cultured in the minimal essential medium containing 5% fetal bovine serum and 400 μg/mL geneticin, cells were placed in 24-well dish (as many as 10^5 cells per one well) and cultured for 2 days. After that, it was washed with Dulbecco's modified PBS and subjected to pre-incubation in the Dulbecco's modified PBS solution for 10 min.
After that, it was washed with Dulbecco's modified PBS solution three times and cells were collected by 0.1N NaOH. Scintillation cocktail was then added to count dpm of [^14C] uric acid being taken in cells by liquid scintillation counter. Values of IC50 were analyzed by profit.

Series [2] has as its target T3, human OAT4 (human organic anion transporter 4) (Homo sapiens, UniProt Q9NSA0).
T3 sequence (Q9NSA0 1-550): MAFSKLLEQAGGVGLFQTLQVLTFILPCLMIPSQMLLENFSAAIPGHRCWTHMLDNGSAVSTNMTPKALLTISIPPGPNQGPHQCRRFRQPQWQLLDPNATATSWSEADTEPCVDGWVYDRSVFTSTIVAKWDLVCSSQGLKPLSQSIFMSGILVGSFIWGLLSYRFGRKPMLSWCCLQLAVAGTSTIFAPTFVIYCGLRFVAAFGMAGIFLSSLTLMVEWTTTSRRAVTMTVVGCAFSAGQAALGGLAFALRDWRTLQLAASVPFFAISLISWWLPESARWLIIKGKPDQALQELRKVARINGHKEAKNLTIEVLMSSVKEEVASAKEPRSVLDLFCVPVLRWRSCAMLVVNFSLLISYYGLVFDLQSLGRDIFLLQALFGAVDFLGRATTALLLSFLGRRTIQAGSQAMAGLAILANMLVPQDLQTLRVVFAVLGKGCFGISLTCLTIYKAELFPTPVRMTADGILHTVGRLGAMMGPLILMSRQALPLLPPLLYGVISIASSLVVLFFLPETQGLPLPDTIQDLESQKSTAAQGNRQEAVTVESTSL
Put plainly: Inhibition of 3H-estrone sulfate uptake by OAT4 in S2 cells. The format is cell-based. Conditions: S2 cells expressing OAT4. An excerpt: OAT4 is an organic anion transporter which is present at luminal side membrane of the proximal renal tubule and takes organic anion such as uric acid into cells, and estrone sulfate is known as the typical substrate of this. […] Results are shown in FIG. 6 in the form of relative value while the amount of uptake of ^3H-estrone sulfate in a case where nothing is present (control) is considered to be 100%.

Series [3] is described as follows: Pharmacokinetic test of single dose in rats. The series is classed as in vivo. The conditions noted are these: single dose of 100 mg/kg; for Cmax / AUC(0-t): rat, in vivo, po; for AUC(0-t): read-out: AUC0-24hr.
Series [4] concerns the target T4, xanthine oxidase derived from bovine milk (Bos taurus, UniProt P80457).
T4 construct: xanthine oxidase derived from bovine milk; from tissue; host or cells: bovine milk
Put plainly: Xanthine oxidase inhibitory activity (absorbance 292 nm, xanthine substrate). The series is classed as biochemical. Conditions: for IC50: 100 μM xanthine, 37° C., pH 7.4, read-out: IC50 level, xanthine oxidase. Here is the method:
Subsequently, xanthine oxidase inhibitory activity of 6-hydroxybenzbromarone was investigated. Activity of xanthine oxidase derived from bovine milk was checked as follows: Using 100 μM of xanthine as the substrate, and using a system for measuring chronologically the absorbance (292 nm) of […] generated at 37° C. in 1/15 M phosphate buffer solution (pH 7.4) in which 0.1 M phosphate buffer solution was diluted by half volume of water, inhibitory activity of 6-hydroxybenzbromarone or of oxypurinol that is a metabolic product of allopurinol was measured to analyze IC50.
Activity of xanthine oxidase derived from bovine milk was analyzed as follows.

A short description of series [5]: Clinical pharmacokinetic test, single dose of benzbromarone, plasma and urine by LC/MS/MS. The series is classed as in vivo, human. The conditions noted are these: for detection in the urine: till 72 hours; for concentration at 72 h: male, human, po, 100 mg as benzbromarone. Here is the method: Next, clinical pharmacokinetic test was carried out for a case where single dose of benzbromarone was given to healthy male adult subjects.
Results of plasma concentration of 6-hydroxybenzbromarone are shown in FIG. 3 and results of urine concentration of the same are shown in FIG. 4, respectively. The vertical axis of FIG. 3 represents plasma level (ng/mL) and the horizontal axis represents time elapsed (hour). […] The vertical axis of FIG. 4 represents concentration in the urine (ng/mL) and the horizontal axis represents time elapsed (hour).

Where [6] appears, read: healthy male adults, single oral 100 mg benzbromarone.

T4 sequence (P80457 whole entry): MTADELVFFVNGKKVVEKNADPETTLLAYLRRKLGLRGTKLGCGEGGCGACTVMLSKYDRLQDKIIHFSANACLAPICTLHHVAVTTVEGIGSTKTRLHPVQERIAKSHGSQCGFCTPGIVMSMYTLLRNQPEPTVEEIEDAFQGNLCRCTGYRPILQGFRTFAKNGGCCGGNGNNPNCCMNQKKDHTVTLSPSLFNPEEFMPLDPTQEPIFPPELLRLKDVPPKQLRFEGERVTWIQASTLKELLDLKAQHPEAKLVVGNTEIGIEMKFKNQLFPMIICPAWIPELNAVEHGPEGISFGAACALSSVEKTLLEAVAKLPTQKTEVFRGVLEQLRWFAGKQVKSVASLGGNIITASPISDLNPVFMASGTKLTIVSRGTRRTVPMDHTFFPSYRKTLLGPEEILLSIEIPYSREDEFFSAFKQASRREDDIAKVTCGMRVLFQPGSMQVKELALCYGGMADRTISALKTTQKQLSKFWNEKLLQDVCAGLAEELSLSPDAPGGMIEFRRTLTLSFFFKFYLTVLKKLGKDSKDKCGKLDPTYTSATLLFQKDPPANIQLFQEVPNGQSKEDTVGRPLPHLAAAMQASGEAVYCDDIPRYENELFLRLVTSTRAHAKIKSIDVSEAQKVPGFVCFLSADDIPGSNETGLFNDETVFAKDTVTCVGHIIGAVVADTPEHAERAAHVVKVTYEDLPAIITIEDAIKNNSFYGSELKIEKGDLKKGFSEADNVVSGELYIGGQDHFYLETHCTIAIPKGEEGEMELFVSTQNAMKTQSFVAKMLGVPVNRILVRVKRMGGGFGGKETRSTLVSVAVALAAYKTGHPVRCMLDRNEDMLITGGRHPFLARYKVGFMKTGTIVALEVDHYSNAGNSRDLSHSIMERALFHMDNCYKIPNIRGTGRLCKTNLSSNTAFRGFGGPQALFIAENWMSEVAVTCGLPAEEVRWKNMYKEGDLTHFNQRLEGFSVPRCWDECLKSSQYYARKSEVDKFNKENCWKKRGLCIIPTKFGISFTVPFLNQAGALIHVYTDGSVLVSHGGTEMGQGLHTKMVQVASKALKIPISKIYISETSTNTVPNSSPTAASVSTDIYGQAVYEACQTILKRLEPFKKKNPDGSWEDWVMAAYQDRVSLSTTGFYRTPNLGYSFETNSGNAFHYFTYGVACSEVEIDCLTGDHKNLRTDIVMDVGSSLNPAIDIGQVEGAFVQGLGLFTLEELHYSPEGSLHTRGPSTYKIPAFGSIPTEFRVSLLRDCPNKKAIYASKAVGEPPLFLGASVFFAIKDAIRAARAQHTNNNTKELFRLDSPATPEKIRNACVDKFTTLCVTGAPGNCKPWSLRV

Take `CCc1oc2cc(O)ccc2c1C(=O)c1cc(Br)c(O)c(Br)c1` [6-hydroxybenzbromarone, 2-ethyl-6-hydroxy-3-(3′,5′-dibromo-4′-hydroxy-benzoyl)-benzofuran]: the “inhibitory style at OAT3” value in series [1] (3H-estrone sulfate uptake, 0.3 μM, FIG. 8) was “mixed type of competitive inhibition and noncompetitive inhibition”. The inhibition constant Ki (usually a measure of affinity in units of concentration, obtained from inhibition or displacement) in series [1] (FIG. 8, read-out: Ki-value (competitive inhibition)) was determined as 1000 nM; in series [1] (FIG. 8, read-out: Ki-value (noncompetitive inhibition)), 700 nM. For the same molecule, the IC50 in series [1] (S2 cells expressing OAT3, 3H-estrone sulfate (50 nmol/L)) amounted to 300 nM; on URAT1 (37° C. 2 min, three experiments, read-out: level of IC50, uric acid uptake by URAT1, after three times experiments), 200 ± 60 nM; on URAT1 (single experiment shown in figure, read-out: level of IC50, uric acid uptake by URAT1 (FIG. 1 / FIG. 2)), 130 nM; in series [2], 3200 nM; in series [4], 68000 nM. Moreover, the “intensity of uric acid uptake inhibition relative to benzbromarone” value at URAT1 (fraction of that of benzbromarone) is recorded as “approximately ⅙”. In series [3], the concentration peaked (Cmax) at 34600 ng/mL. The AUC(0-t) in series [3] came out at 291 µg·h/mL. Further, the “absorption from the digestive tract into bloodstream” value in series [3] is reported as “absorbed favorably”. For the same molecule, in series [4] (fraction of that of oxypurinol), the “inhibitory activity of xanthine oxidase relative to oxypurinol” value is “approximately ⅕”. The “AUC in plasma relative to benzbromarone” value in series [5] (setting [6]) is “twice or higher level than that of benzbromarone”. The “detection in the urine” value in series [5] (setting [6]) is given as “high level”. Besides, the concentration at 72 h was about 110 ng/mL in series [5] (plasma, read-out: plasma concentration 72 hours after administration) and about 170 ng/mL in series [5] (urine, read-out: urine concentration 72 hours after administration).
The molecule `CCc1oc2ccccc2c1C(=O)c1cc(Br)c(O)c(Br)c1` [benzbromarone] yielded an IC50 in series [1] of 700 nM. In series [2], this molecule yielded an IC50 of 5400 nM. For the same molecule, in series [3], the Cmax (usually the peak of the concentration-time curve) was determined as 90200 ng/mL and the AUC(0-t) was found to be 887 µg·h/mL. In series [5] (setting [6]), the “time after administration at which eliminated from plasma” value was determined as 48 h and the “detection in the urine” value is recorded as “detected little in the urine”.
Turning to `O=c1[nH]c(=O)c2c[nH]nc2[nH]1` [oxypurinol, reference compound], the IC50 in series [4] was found to be 13000 nM.
